# Source: patent US20150344426A1, “COMPOUNDS AND THERAPEUTIC USES THEREOF” (ALZHEIMER'S INSTITUTE OF AMERICA, INC., priority 2012, published 2015)
# Where “and” joins values, the source holds several entries; their conditions need not be identical. Equal values may be shown once.
# Tests used:
# [1] = Experiment 1: hepatic portal vein samples of rats after oral Example Compound 35; format: in vivo, female Sprague-Dawley rats
# From the text: It is believed that Example Compound 35 metabolizes in vivo into Parent Compound A (i.e., it is believed that Example Compound 35 is a prodrug of Parent Compound A). The objective of this study was to determine the concentration of Example Compound 35 and Parent Compound A in hepatic portal vein samples of female Sprague-Dawley rats following oral administration of only Example Compound 35, and to quantify the extent of transport into hepatic portal circulation, if any, of Example Compound 35. A second objective was to determine the relative bioavailability of Parent Compound A in the portal vein following oral administration of Example Compound 35.
# Experiment 1. Three female Sprague Dawley rats (200-215 g, Harlan Laboratories, Indianapolis, Ind.) with cannulae implanted surgically in the portal vein for blood sampling were used in this study. Example Compound 35, formulated in 50 mM Glycine pH 3.0 with 0.5% HPMC and 0.05% Tween-80, was administered by oral gavage (PO) at a dose of 20 mg/kg in a volume of 2 mL/kg. This dose is the molar equivalent of a 13.5 mg/kg dose of Parent Compound A. Portal blood samples were collected through the portal vein cannula from each animal at 0.25, 0.5, 1, 2, 4, and 8 hours following administration of compound. Samples were split into two fractions and one was supplemented with citrate buffer (final concentration 100 mM, pH 3.0) to stabilize Example Compound 35 and stop conversion of Example Compound 35 to Parent Compound A ex vivo during analysis. Samples were then processed to generate plasma and analyzed for Example Compound 35 by LC-MS/MS. Plasma derived from the second aliquot of blood was analyzed for Parent Compound A.
# Pharmacokinetic parameters estimated for Parent Compound A included the maximum observed drug concentration (Cmax), time of maximum observed drug concentration (Tmax), apparent terminal half-life (t1/2), area under the concentration-time curve from time zero to 8 hours postdose (AUC(0-8)), and area under the concentration-time curve extrapolated to infinity (AUC(0-inf)). The bioavailability (% F) of Parent Compound A in portal vein samples relative to IV administration was also estimated.
# Plasma samples were analyzed for Example Compound 35 or Parent Compound A concentration using a LC-MS/MS method. All sample runs met standard acceptance criteria for discovery purposes, and were based on a standard curve containing at least 7 points. At least half of quality control samples at each of the three concentrations tested, and two thirds of the entire quality control sample pool, were within 15% of their theoretical value. The r^2 value for each standard curve was ≧0.99. The quantitation range for the Example Compound 35 and Parent Compound A assays was 1 to 100 ng/mL and 5 to 2,500 ng/mL, respectively, using a 0.05 mL sample volume.
# The data were entered into the PK software package WinNonlin® version 5.1.1. A complete data check was conducted to verify the accuracy of data entry.
# Pharmacokinetic parameters were estimated on median plasma concentrations using extravascular input (PO). Nominal collection times after administration of compound were used for PK analyses. The use of a non-compartmental model provided an adequate fit of the data. Pharmacokinetic parameters estimated for Parent Compound A included the maximum observed drug concentration (Cmax), time of maximum observed drug concentration (Tmax), apparent terminal half-life (t1/2), apparent volume of distribution (Vz obs), apparent clearance (C1 obs), area under the concentration-time curve from time zero to 8 hours postdose of Example Compound 35 […], and area under the concentration-time curve extrapolated to infinity (AUC(0-inf)). Example Compound 35 was detected in only one 0.25 hour hepatic portal vein sample at 1.29 ng/mL. Any Example Compound 35 present in all of the other samples was below the quantitation limit of 1 ng/mL and pharmacokinetic parameters were not determined for those samples. […]
# [2] = system: HT1080 human fibrosarcoma cancer cells; assay: Anti-tumor activity in HT1080 human fibrosarcoma xenograft with twice daily dosing; format: in vivo; details: for MTV increase / tumor growth inhibition relative to vehicle: 6 mg/kg twice daily for 8 days; for MTV decrease / tumor regression: 12 mg/kg twice daily for 8 days
# Method in brief: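 Female nude mice (Crl:NU-Fox1^nu) bearing s.c. flank tumors from 1 million HT1080 cells, randomized into cohorts of ten at median tumor volumes about 82–209 mm^3. Dosing twice daily for 7 days; tumor volumes and body weights tracked from Day 1 to Days 15–22.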
# [3] = Stability in mouse plasma; format: in vitro ADME; details: read-out: Mouse Plasma t1/2
# Procedure: Relative stability of Example Compound Nos. 1 through 60 in mouse plasma and mouse liver microsomal preparations.
# Certain Example Compounds were each added to a final concentration of 1 μM to 1 mL of each of mouse plasma and mouse liver microsomal preparations (with and without 1 mM NADPH). Stability assays were run in duplicate and were sampled at 0, 5, 15, 30, 60 and 120 minutes as follows: one hundred microliter aliquots of samples were removed at the specified sampling times, and the reaction was quenched with 400 μL of acetonitrile.
# Samples were analyzed by HPLC-ESI-MS/MS by measuring the peak area of both the starting Example Compound and parent compound (i.e., either Parent Compound A or Parent Compound B) that were created by removal of the Prodrug Moiety (as defined in Section 6 herein).
# [4] = female rats, orally at 20 mg/kg
structure (smiles),measurement,setting,value
"O=C(NCc1ccc[n+](COC(=O)c2ccccc2)c1)Nc1ccc(OCCc2ccccc2-c2ccccc2)cc1 [Example 35, 1-[(Benzoyloxy)methyl]-3-{[({4-[2-(biphenyl-2-yl)ethoxy]phenyl}carbamoyl)amino]methyl} pyridinium]",Conversion to Parent Compound A following oral administration,[1]; [4],rapidly converted
same,Transport of Example Compound 35 into the hepatic portal vein,[1]; [4],not significantly transported
same,concentration at 1 h,"[1]; female, Sprague-Dawley, rat, plasma (hepatic portal vein), po, 20 mg/kg, portal vein, 1 hr after oral Example Compound 35 20 mg/kg, individual rats, * = below the quantitation limit of 1 ng/mL, read-out: [Ex. Cmp. 35]",0.24 ng/mL
same,concentration at 2 h,"[1]; female, Sprague-Dawley, rat, plasma (hepatic portal vein), po, 20 mg/kg, portal vein, 2 hr after oral Example Compound 35 20 mg/kg, individual rats, * = below the quantitation limit of 1 ng/mL, read-out: [Ex. Cmp. 35]",0.15 ng/mL
same,concentration at 4 h,"[1]; female, Sprague-Dawley, rat, plasma (hepatic portal vein), po, 20 mg/kg, portal vein, 4 hr after oral Example Compound 35 20 mg/kg, individual rats, * = below the quantitation limit of 1 ng/mL, read-out: [Ex. Cmp. 35]",0.13 ng/mL
same,Example Compound 35 present in all of the other portal vein samples,"[1]; oral 20 mg/kg, all samples other than one 0.25 hour sample, quantitation limit",< 1 ng/mL
same,[Ex. Cmp. 35],"[1]; portal vein, 0.25 hr after oral Example Compound 35 20 mg/kg, individual rats, * = below the quantitation limit of 1 ng/mL, 20 mg/kg",1.29 ng/mL
same,[Ex. Cmp. 35],"[1]; portal vein, 0.25 hr after oral Example Compound 35 20 mg/kg, individual rats, * = below the quantitation limit of 1 ng/mL, listed as Ex. Cmp. 35, 20 mg/kg",0.38* ng/mL and 1.3 ng/mL and 0.75* ng/mL
same,[Ex. Cmp. 35],"[1]; portal vein, 0.5 hr after oral Example Compound 35 20 mg/kg, individual rats, * = below the quantitation limit of 1 ng/mL, listed as Ex. Cmp. 35, 20 mg/kg",0.8* ng/mL and 0.32* ng/mL and 0.4* ng/mL
same,[Ex. Cmp. 35],"[1]; portal vein, 1 hr after oral Example Compound 35 20 mg/kg, individual rats, * = below the quantitation limit of 1 ng/mL, listed as Ex. Cmp. 35, 20 mg/kg",0.38* ng/mL and 0.29* ng/mL
same,[Ex. Cmp. 35],"[1]; portal vein, 2 hr after oral Example Compound 35 20 mg/kg, individual rats, * = below the quantitation limit of 1 ng/mL, listed as Ex. Cmp. 35, 20 mg/kg",0.3* ng/mL and No Peak
same,[Ex. Cmp. 35],"[1]; portal vein, 4 hr after oral Example Compound 35 20 mg/kg, individual rats, * = below the quantitation limit of 1 ng/mL, listed as Ex. Cmp. 35, 20 mg/kg",No Peak and 0.13* ng/mL
same,[Ex. Cmp. 35],"[1]; portal vein, 8 hr after oral Example Compound 35 20 mg/kg, individual rats, * = below the quantitation limit of 1 ng/mL, listed as Ex. Cmp. 35, 20 mg/kg",No Peak and 0.16* ng/mL and 0.07* ng/mL
same,MTV increase,[2]; Day 9,31%
same,tumor growth inhibition relative to vehicle,[2]; Day 9,87%
same,MTV increase,[2]; Day 21,2245%
same,tumor growth inhibition relative to vehicle,[2]; Day 21,78%
same,MTV decrease,[2]; Day 9,81%
same,tumor regression,[2]; Day 9,80%
same,MTV decrease,[2]; Day 21,33%
same,tumor regression,[2]; Day 21,33%
same,animals with no detectable tumors by the end of the study,"[2]; Example Compound 35 study, 12 mg/kg, cohort of ten",Four
same,animals euthanized,"[2]; Example Compound 35 study, 6 and 12 mg/kg",No animals
same,anti-tumor activity in the HT1080 xenograft model (summary statement),"[2]; administered orally, twice daily, all doses tested",significant anti-tumor activity
same,maximal reduction in median body weight,"[2]; over the course of the study, all doses tested, orally twice daily",< 15 % of the initial weight
same,Tolerability,"[2]; xenograft mice, all doses tested, orally twice daily",well tolerated
same,half-life at 1 µM,[3],1.29 h
